Test results as given in US20090069300A1, “ISOQUINOLINYL AND ISOINDOLINYL DERIVATIVES AS HISTAMINE-3 ANTAGONISTS” (Wyeth, priority 2007, published 2009).
Structures can show the parent of a compound that is named as a salt.

| SMILES | melting point [°C] |
| --- | --- |
| O=C1c2ccc(-c3cccc(F)c3)cc2CCN1CCN1CCCC1 (as salt: hydrochloride) [Example 18, 6-(3-fluorophenyl)-2-(2-pyrrolidin-1-ylethyl)-3,4-dihydroisoquinolin-1(2H)-one] | 182 to 184 |
| N#Cc1ccc(-c2ccc3c(c2)CCN(CCN2CCCC2)C3=O)cc1 (as salt: hydrochloride) [Example 19, 4-[1-oxo-2-(2-pyrrolidin-1-ylethyl)-1,2,3,4-tetrahydroisoquinolin-6-yl]benzonitrile] | 249 to 251 |
| O=C1c2ccc(-c3cccc(C(F)(F)F)c3)cc2CCN1CCN1CCCC1 (as salt: hydrochloride) [Example 20, 2-(2-pyrrolidin-1-ylethyl)-6-[3-(trifluoromethyl)phenyl]-3,4-dihydroisoquinolin-1(2H)-one] | 138 to 139 |
| O=C1c2ccc(-c3ccc4c(c3)OCO4)cc2CCN1CCN1CCCC1 (as salt: hydrochloride) [Example 21, 6-(1,3-benzodioxol-5-yl)-2-(2-pyrrolidin-1-ylethyl)-3,4-dihydroisoquinolin-1(2H)-one] | 249 to 251 |
| O=C1c2ccc(-c3ccc(C(F)(F)F)cc3)cc2CCN1CCN1CCCC1 (as salt: hydrochloride) [Example 22, 2-(2-pyrrolidin-1-ylethyl)-6-[4-(trifluoromethyl)phenyl]-3,4-dihydroisoquinolin-1(2H)-one] | 243 to 244 |
| COc1ccc(-c2ccc3c(c2)CCN(CCN2CCCC2)C3=O)cc1 (as salt: hydrochloride) [Example 23, 6-(4-methoxyphenyl)-2-(2-pyrrolidin-1-ylethyl)-3,4-dihydroisoquinolin-1(2H)-one] | 224 to 225 |
| C[C@@H]1CCCN1CCN1CCc2c(cccc2-c2cccc(C#N)c2)C1=O (as salt: hydrochloride) [Example 27, 3-(2-{2-[(2R)-2-methylpyrrolidin-1-yl]ethyl}-1-oxo-1,2,3,4-tetrahydroisoquinolin-5-yl)benzonitrile] | 203 to 205 |
| N#Cc1cccc(-c2ccc3c(c2)CCN(CCCN2CCCC2)C3=O)c1 (as salt: hydrochloride) [Example 33, 3-[1-oxo-2-(3-pyrrolidin-1-ylpropyl)-1,2,3,4-tetrahydroisoquinolin-6-yl]benzonitrile] | 175 to 176 |
| N#Cc1ccc2c(ccn2-c2ccc3c(c2)CCN(CCN2CCCC2)C3=O)c1 (as salt: hydrochloride) [Example 35, 1-[1-oxo-2-(2-pyrrolidin-1-ylethyl)-1,2,3,4-tetrahydroisoquinolin-6-yl]-1H-indole-5-carbonitrile Hydrochloride] | 215 to 217 |
| O=C1c2ccc(-n3cccn3)cc2CCN1CCN1CCCC1 (as salt: hydrochloride) [Example 37, 6-(1H-pyrazol-1-yl)-2-(2-(pyrrolidin-1-yl)ethyl)-3,4-dihydroisoquinolin-1(2H)-one hydrochloride] | 174 to 175 |
| O=C(c1ccc2c(c1)CCN(CCN1CCCC1)C2=O)N1CCCC1 (as salt: hydrochloride) [Example 38, 6-(pyrrolidin-1-ylcarbonyl)-2-(2-pyrrolidin-1-ylethyl)-3,4-dihydroisoquinolin-1(2H)-one hydrochloride] | 194 to 196 |
| C[C@H]1CCCN1CCN1CCc2cc(-c3ccc(F)cc3)ccc2C1=O (as salt: hydrochloride) [Example 39, 6-(4-fluorophenyl)-2-{2-[(2S)-2-methylpyrrolidin-1-yl]ethyl}-3,4-dihydroiso-quinolin-1(2H)-one hydrochloride] | 244 to 247 |
| C[C@@H]1CCCN1CCN1CCc2cc(-c3ccc(F)cc3)ccc2C1=O (as salt: hydrochloride) [Example 40, 6-(4-fluorophenyl)-2-{2-[(2R)-2-methylpyrrolidin-1-yl]ethyl}-3,4-dihydroisoquinolin-1(2H)-one] | 236 to 238 |
